{"source": "ChEMBL document CHEMBL4043204", "about": "“meso-Dihydroguaiaretic acid derivatives with antibacterial and antimycobacterial activity” (Bioorg Med Chem, 2017)", "note": "Active and inactive are the calls of the source. No cut-off for these calls is given here.", "data": [{"test_system": "Stenotrophomonas maltophilia", "test": "Antibacterial activity against trimethoprim-sulfamethoxazole-resistant Stenotrophomonas maltophilia assessed as inhibition of microbial growth up to 50 ug/ml incubated for 24 hrs by microdilution assay", "format": "functional", "conditions": "not given", "values": [{"smiles": "COc1cc(C[C@@H](C)[C@@H](C)Cc2ccc(OCCN(C)C)c(OC)c2)ccc1O", "note": "(racemic)", "Activity": "inactive"}, {"smiles": "COc1cc(C[C@@H](C)[C@@H](C)Cc2ccc(OCCN3CCCC3)c(OC)c2)ccc1O", "note": "(racemic)", "Activity": "inactive"}, {"smiles": "COc1cc(C[C@@H](C)[C@@H](C)Cc2ccc(OCCN3CCCC3)c(OC)c2)ccc1OCCN1CCCC1", "Activity": "inactive"}, {"smiles": "CCCCCCCCCCCCCCCCCC(=O)Oc1ccc(C[C@@H](C)[C@@H](C)Cc2ccc(OC(=O)CCCCCCCCCCCCCCCCC)c(OC)c2)cc1OC", "Activity": "inactive"}, {"smiles": "COc1cc(C[C@@H](C)[C@@H](C)Cc2ccc(OC(=O)c3ccc(Br)cc3)c(OC)c2)ccc1OC(=O)c1ccc(Br)cc1", "Activity": "inactive"}]}, {"test_system": "Acinetobacter baumannii", "test": "Antibacterial activity against carbapenem-resistant Acinetobacter baumannii (12-666) assessed as inhibition of microbial growth up to 50 ug/ml incubated for 24 hrs by microdilution assay", "format": "functional", "conditions": "not given", "values": [{"smiles": "COc1cc(C[C@@H](C)[C@@H](C)Cc2ccc(OCCN(C)C)c(OC)c2)ccc1O", "note": "(racemic)", "Activity": "inactive"}, {"smiles": "COc1cc(C[C@@H](C)[C@@H](C)Cc2ccc(OCCN3CCCC3)c(OC)c2)ccc1O", "note": "(racemic)", "Activity": "inactive"}, {"smiles": "COc1cc(C[C@@H](C)[C@@H](C)Cc2ccc(OCCN3CCCC3)c(OC)c2)ccc1OCCN1CCCC1", "Activity": "inactive"}, {"smiles": "CCCCCCCCCCCCCCCCCC(=O)Oc1ccc(C[C@@H](C)[C@@H](C)Cc2ccc(OC(=O)CCCCCCCCCCCCCCCCC)c(OC)c2)cc1OC", "Activity": "inactive"}, {"smiles": "COc1cc(C[C@@H](C)[C@@H](C)Cc2ccc(OC(=O)c3ccc(Br)cc3)c(OC)c2)ccc1OC(=O)c1ccc(Br)cc1", "Activity": "inactive"}]}, {"test_system": "Vero", "test": "Cytotoxicity against African green monkey Vero cells assessed as reduction in cell viability incubated for 24 hrs by trypan blue staining based assay", "conditions": "Chlorocebus sabaeus", "units": {"IC50": "µg/mL"}, "values": [{"smiles": "COc1cc(C[C@@H](C)[C@@H](C)Cc2ccc(OCCN(C)C)c(OC)c2)ccc1O", "note": "(racemic)", "IC50": 327}, {"smiles": "COc1cc(C[C@@H](C)[C@@H](C)Cc2ccc(OCCN3CCCC3)c(OC)c2)ccc1O", "note": "(racemic)", "IC50": "> 487"}, {"smiles": "COc1cc(C[C@@H](C)[C@@H](C)Cc2ccc(OCCN3CCCC3)c(OC)c2)ccc1OCCN1CCCC1", "IC50": "> 487"}]}, {"test_system": "Mycobacterium tuberculosis", "test": "Antimycobacterial activity against Mycobacterium tuberculosis H37Rv ATCC 27294 assessed as inhibition of mycobacterial growth up to 50 ug/ml incubated for 2 weeks by MABA method", "format": "functional", "conditions": "not given", "values": [{"smiles": "CCCCCCCCCCCCCCCCCC(=O)Oc1ccc(C[C@@H](C)[C@@H](C)Cc2ccc(OC(=O)CCCCCCCCCCCCCCCCC)c(OC)c2)cc1OC", "growth inhibition (GI)": "inactive"}, {"smiles": "COc1cc(C[C@@H](C)[C@@H](C)Cc2ccc(OC(=O)c3ccc(Br)cc3)c(OC)c2)ccc1OC(=O)c1ccc(Br)cc1", "growth inhibition (GI)": "inactive"}]}, {"test_system": "Klebsiella pneumoniae", "test": "Antibacterial activity against extended-spectrum beta-lactamase-positive Klebsiella pneumoniae (14-2081) assessed as inhibition of microbial growth up to 50 ug/ml incubated for 24 hrs by microdilution assay", "format": "functional", "conditions": "not given", "values": [{"smiles": "COc1cc(C[C@@H](C)[C@@H](C)Cc2ccc(OCCN(C)C)c(OC)c2)ccc1O", "note": "(racemic)", "Activity": "inactive"}, {"smiles": "COc1cc(C[C@@H](C)[C@@H](C)Cc2ccc(OCCN3CCCC3)c(OC)c2)ccc1O", "note": "(racemic)", "Activity": "inactive"}, {"smiles": "COc1cc(C[C@@H](C)[C@@H](C)Cc2ccc(OCCN3CCCC3)c(OC)c2)ccc1OCCN1CCCC1", "Activity": "inactive"}, {"smiles": "CCCCCCCCCCCCCCCCCC(=O)Oc1ccc(C[C@@H](C)[C@@H](C)Cc2ccc(OC(=O)CCCCCCCCCCCCCCCCC)c(OC)c2)cc1OC", "Activity": "inactive"}, {"smiles": "COc1cc(C[C@@H](C)[C@@H](C)Cc2ccc(OC(=O)c3ccc(Br)cc3)c(OC)c2)ccc1OC(=O)c1ccc(Br)cc1", "Activity": "inactive"}]}, {"test_system": "Escherichia coli", "test": "Antibacterial activity against extended-spectrum beta-lactamase-positive Escherichia coli (14-2081) assessed as inhibition of microbial growth up to 50 ug/ml incubated for 24 hrs by microdilution assay", "format": "functional", "conditions": "not given", "values": [{"smiles": "COc1cc(C[C@@H](C)[C@@H](C)Cc2ccc(OCCN(C)C)c(OC)c2)ccc1O", "note": "(racemic)", "Activity": "inactive"}, {"smiles": "COc1cc(C[C@@H](C)[C@@H](C)Cc2ccc(OCCN3CCCC3)c(OC)c2)ccc1O", "note": "(racemic)", "Activity": "inactive"}, {"smiles": "COc1cc(C[C@@H](C)[C@@H](C)Cc2ccc(OCCN3CCCC3)c(OC)c2)ccc1OCCN1CCCC1", "Activity": "inactive"}, {"smiles": "CCCCCCCCCCCCCCCCCC(=O)Oc1ccc(C[C@@H](C)[C@@H](C)Cc2ccc(OC(=O)CCCCCCCCCCCCCCCCC)c(OC)c2)cc1OC", "Activity": "inactive"}, {"smiles": "COc1cc(C[C@@H](C)[C@@H](C)Cc2ccc(OC(=O)c3ccc(Br)cc3)c(OC)c2)ccc1OC(=O)c1ccc(Br)cc1", "Activity": "inactive"}]}, {"test_system": "Providencia rettgeri", "test": "Antibacterial activity against NDM-1 positive Providencia rettgeri assessed as inhibition of microbial growth up to 50 ug/ml incubated for 24 hrs by microdilution assay", "format": "functional", "conditions": "not given", "values": [{"smiles": "COc1cc(C[C@@H](C)[C@@H](C)Cc2ccc(OCCN(C)C)c(OC)c2)ccc1O", "note": "(racemic)", "Activity": "inactive"}, {"smiles": "COc1cc(C[C@@H](C)[C@@H](C)Cc2ccc(OCCN3CCCC3)c(OC)c2)ccc1O", "note": "(racemic)", "Activity": "inactive"}, {"smiles": "COc1cc(C[C@@H](C)[C@@H](C)Cc2ccc(OCCN3CCCC3)c(OC)c2)ccc1OCCN1CCCC1", "Activity": "inactive"}, {"smiles": "CCCCCCCCCCCCCCCCCC(=O)Oc1ccc(C[C@@H](C)[C@@H](C)Cc2ccc(OC(=O)CCCCCCCCCCCCCCCCC)c(OC)c2)cc1OC", "Activity": "inactive"}, {"smiles": "COc1cc(C[C@@H](C)[C@@H](C)Cc2ccc(OC(=O)c3ccc(Br)cc3)c(OC)c2)ccc1OC(=O)c1ccc(Br)cc1", "Activity": "inactive"}]}, {"test_system": "Pseudomonas aeruginosa", "test": "Antibacterial activity against carbapenem-resistant Pseudomonas aeruginosa (13-1391) assessed as inhibition of microbial growth up to 50 ug/ml incubated for 48 hrs by microdilution assay", "format": "functional", "conditions": "not given", "values": [{"smiles": "COc1cc(C[C@@H](C)[C@@H](C)Cc2ccc(OCCN(C)C)c(OC)c2)ccc1O", "note": "(racemic)", "Activity": "inactive"}, {"smiles": "COc1cc(C[C@@H](C)[C@@H](C)Cc2ccc(OCCN3CCCC3)c(OC)c2)ccc1O", "note": "(racemic)", "Activity": "inactive"}, {"smiles": "COc1cc(C[C@@H](C)[C@@H](C)Cc2ccc(OCCN3CCCC3)c(OC)c2)ccc1OCCN1CCCC1", "Activity": "inactive"}, {"smiles": "CCCCCCCCCCCCCCCCCC(=O)Oc1ccc(C[C@@H](C)[C@@H](C)Cc2ccc(OC(=O)CCCCCCCCCCCCCCCCC)c(OC)c2)cc1OC", "Activity": "inactive"}, {"smiles": "COc1cc(C[C@@H](C)[C@@H](C)Cc2ccc(OC(=O)c3ccc(Br)cc3)c(OC)c2)ccc1OC(=O)c1ccc(Br)cc1", "Activity": "inactive"}]}, {"test_system": "Mycobacterium tuberculosis", "test": "(§1) Antimycobacterial activity against Mycobacterium tuberculosis H37Rv ATCC 27294 assessed as inhibition of mycobacterial growth incubated for 2 weeks by MABA method", "format": "functional", "conditions": "not given", "values": [{"smiles": "COc1cc(C[C@@H](C)[C@@H](C)Cc2ccc(OCCN(C)C)c(OC)c2)ccc1O", "note": "(racemic)", "-logMIC": 4.53}, {"smiles": "COc1cc(C[C@@H](C)[C@@H](C)Cc2ccc(OCCN3CCCC3)c(OC)c2)ccc1O", "note": "(racemic)", "-logMIC": 5.25}, {"smiles": "CCCCCCCCCCCCCCCCCC(=O)Oc1ccc(C[C@@H](C)[C@@H](C)Cc2ccc(OC(=O)CCCCCCCCCCCCCCCCC)c(OC)c2)cc1OC", "-logMIC": 3.85}, {"smiles": "COc1cc(C[C@@H](C)[C@@H](C)Cc2ccc(OC(=O)c3ccc(Br)cc3)c(OC)c2)ccc1OC(=O)c1ccc(Br)cc1", "-logMIC": 4.09}]}, {"test_system": "Mycobacterium tuberculosis", "test": "as §1", "format": "functional", "conditions": "Mycobacterium tuberculosis, H37Rv ATCC 27294, 336 h", "units": {"MIC": "µg/mL"}, "values": [{"smiles": "COc1cc(C[C@@H](C)[C@@H](C)Cc2ccc(OCCN(C)C)c(OC)c2)ccc1O", "note": "(racemic)", "MIC": 12.5}, {"smiles": "COc1cc(C[C@@H](C)[C@@H](C)Cc2ccc(OCCN3CCCC3)c(OC)c2)ccc1O", "note": "(racemic)", "MIC": 12.5}, {"smiles": "COc1cc(C[C@@H](C)[C@@H](C)Cc2ccc(OCCN3CCCC3)c(OC)c2)ccc1OCCN1CCCC1", "MIC": 25}]}, {"test_system": "Klebsiella pneumoniae", "test": "Antibacterial activity against NDM-1 positive Klebsiella pneumoniae (14-3335) assessed as inhibition of microbial growth up to 50 ug/ml incubated for 24 hrs by microdilution assay", "format": "functional", "conditions": "not given", "values": [{"smiles": "COc1cc(C[C@@H](C)[C@@H](C)Cc2ccc(OCCN(C)C)c(OC)c2)ccc1O", "note": "(racemic)", "Activity": "inactive"}, {"smiles": "COc1cc(C[C@@H](C)[C@@H](C)Cc2ccc(OCCN3CCCC3)c(OC)c2)ccc1O", "note": "(racemic)", "Activity": "inactive"}, {"smiles": "COc1cc(C[C@@H](C)[C@@H](C)Cc2ccc(OCCN3CCCC3)c(OC)c2)ccc1OCCN1CCCC1", "Activity": "inactive"}, {"smiles": "CCCCCCCCCCCCCCCCCC(=O)Oc1ccc(C[C@@H](C)[C@@H](C)Cc2ccc(OC(=O)CCCCCCCCCCCCCCCCC)c(OC)c2)cc1OC", "Activity": "inactive"}, {"smiles": "COc1cc(C[C@@H](C)[C@@H](C)Cc2ccc(OC(=O)c3ccc(Br)cc3)c(OC)c2)ccc1OC(=O)c1ccc(Br)cc1", "Activity": "inactive"}]}, {"test_system": "not listed separately", "test": "Selectivity index, ratio of IC50 for cytotoxicity against African green monkey Vero cells to MIC for Mycobacterium tuberculosis H37Rv ATCC 27294", "format": "toxicity, cell-based", "conditions": "read-out: Selectivity Index", "values": [{"smiles": "COc1cc(C[C@@H](C)[C@@H](C)Cc2ccc(OCCN(C)C)c(OC)c2)ccc1O", "note": "(racemic)", "selectivity ratio": 26.1}, {"smiles": "COc1cc(C[C@@H](C)[C@@H](C)Cc2ccc(OCCN3CCCC3)c(OC)c2)ccc1O", "note": "(racemic)", "selectivity ratio": "> 39"}, {"smiles": "COc1cc(C[C@@H](C)[C@@H](C)Cc2ccc(OCCN3CCCC3)c(OC)c2)ccc1OCCN1CCCC1", "selectivity ratio": "> 19.5"}]}, {"test_system": "Escherichia coli", "test": "Antibacterial activity against oxacillin-resistant Escherichia coli OXA-48 assessed as inhibition of microbial growth up to 50 ug/ml incubated for 24 hrs by microdilution assay", "format": "functional", "conditions": "not given", "values": [{"smiles": "COc1cc(C[C@@H](C)[C@@H](C)Cc2ccc(OCCN(C)C)c(OC)c2)ccc1O", "note": "(racemic)", "Activity": "inactive"}, {"smiles": "COc1cc(C[C@@H](C)[C@@H](C)Cc2ccc(OCCN3CCCC3)c(OC)c2)ccc1O", "note": "(racemic)", "Activity": "inactive"}, {"smiles": "COc1cc(C[C@@H](C)[C@@H](C)Cc2ccc(OCCN3CCCC3)c(OC)c2)ccc1OCCN1CCCC1", "Activity": "inactive"}, {"smiles": "CCCCCCCCCCCCCCCCCC(=O)Oc1ccc(C[C@@H](C)[C@@H](C)Cc2ccc(OC(=O)CCCCCCCCCCCCCCCCC)c(OC)c2)cc1OC", "Activity": "inactive"}, {"smiles": "COc1cc(C[C@@H](C)[C@@H](C)Cc2ccc(OC(=O)c3ccc(Br)cc3)c(OC)c2)ccc1OC(=O)c1ccc(Br)cc1", "Activity": "inactive"}]}]}
